Measured values reported in US10800772B2 (Gilead Sciences, Inc., priority 2016, dated 2020).
Like-named read-outs stand apart in the source and are kept apart here.

What was measured:
Assay type in all cases: cell-based, HIV-1
HIV-IIIb IN T174I BT = experiment: Antiviral assay in MT4 cells, HIV-IIIb IN T174I BT virus (from viral breakthrough); conditions: Human immunodeficiency virus 1, IIIB, MT4, 120 h, read-out: T174I BT EC50, MT4 cells, HIV-IIIb IN T174I BT (viral breakthrough), 5 days, CellTiter-Glo
Description: (§1) Antiviral Assay in MT4 Cells
(§2) For the antiviral assay, 0.4 μL of 189X test concentration of 3-fold serially diluted compound in DMSO was added to 40 μL of cell growth medium (RPMI 1640, 10% FBS, 1% Penicillin-Streptomycin, 1% L-Glutamine, 1% HEPES) in each well of 384-well plate (10 concentrations) in quadruplicate.
(§3) 1 mL Aliquots of MT4 cells were pre-infected for 3 hours at 37° C. with 25 μL of cell growth medium (mock-infected) or a fresh 1:250 dilution of an HIV-IIIb (wildtype, IN T174I BT, or IN T174I DE) concentrated ABI stock (0.004 m.o.i.). IN T174I BT virus was derived from viral breakthrough (BT) assay as described in Mulato, A.; Hansen, D.; Thielen, A.; Porter, D.; Stepan, G.; White, K.; Daeumer, M.; Cihlar, T.; Yant, S. R. AIDS Research and Human Retrovirues, July 2016, ahead of print. doi:10.1089/aid.2016.0071. IN T174I DE virus was derived from serial passaging with dose escalation (DE) of test compound. Infected and uninfected cells were diluted in cell growth media and 35 μL (2000 cells) was added to each well of the assay plates.
(§4) Assay plates were then maintained in a humidified, 5% CO2 incubator at 37° C. After 5 days of incubation, 25 μl of 2× concentrated CellTiter-Glo™ Reagent (catalog # G7573, Promega Biosciences, Inc., Madison, Wis.) was added to each well of the assay plate. Cell lysis was carried out by incubating at room temperature for 10 minutes and then chemiluminescence was read using an Envision plate reader (PerkinElmer). EC50 values were calculated as the compound concentration that caused a 50% […] in luminescence signal, a measure of HIV-1 replication.

HIV-IIIb (wildtype) = experiment: Antiviral assay in MT4 cells, HIV-IIIb wildtype; conditions: read-out: WT EC50
Description: as §1, §2, §3, §4

HIV-IIIb IN T174I DE = experiment: Antiviral assay in MT4 cells, HIV-IIIb IN T174I DE virus (from dose escalation passaging); conditions: Human immunodeficiency virus 1, IIIB, MT4, 120 h, read-out: T174I DE EC50, MT4 cells, HIV-IIIb IN T174I DE (dose escalation), 5 days, CellTiter-Glo
Description: as §1, §2, §3, §4

[1] = Human immunodeficiency virus 1, IIIB, MT4, 120 h
[2] = Human immunodeficiency virus 1, 120 h, MT4 cells, HIV-IIIb wildtype, 5 days, CellTiter-Glo

Structure (SMILES) | EC50 (HIV-IIIb IN T174I BT) | EC50 (HIV-IIIb (wildtype); [1]) | EC50 (HIV-IIIb IN T174I DE) | EC50 (HIV-IIIb (wildtype); [2])
CCOC(=O)N1CCC(c2nn(C)c3ccc(-c4nc5cc(C)c([C@H](OC(C)(C)C)C(=O)O)c(-c6ccc(Cl)cc6)c5s4)cc23)CC1 [Compound 24] | 769 nM | 16 nM | 1090 nM | 
Cc1cc2nc(-c3ccc4c(c3)c(C3CCN(C5CN(C(=O)OC(C)(C)C)C5)CC3)nn4C)sc2c(-c2ccc(Cl)cc2)c1[C@H](OC(C)(C)C)C(=O)O [Compound 28, (S)-2-(tert-butoxy)-2-(2-(3-(1-(1-(tert-butoxycarbonyl)azetidin-3-yl)piperidin-4-yl)-1-methyl-1H-indazol-5-yl)-7-(4-chlorophenyl)-5-methylbenzo[d]thiazol-6-yl)acetic Acid] | 1800 nM | 73 nM | 2260 nM | 
Cc1cc2nc(-c3ccc4c(c3)c(C3CCN(C5CNC5)CC3)nn4C)sc2c(-c2ccc(Cl)cc2)c1[C@H](OC(C)(C)C)C(=O)O [Compound 29, (S)-2-(2-(3-(1-(azetidin-3-yl)piperidin-4-yl)-1-methyl-1H-indazol-5-yl)-7-(4-chlorophenyl)-5-methylbenzo[d]thiazol-6-yl)-2-(tert-butoxy)acetic acid] | 646 nM |  | 823 nM | 52 nM
CC(=O)N1CC(N2CCC(c3nn(C)c4ccc(-c5nc6cc(C)c([C@H](OC(C)(C)C)C(=O)O)c(-c7ccc(Cl)cc7)c6s5)cc34)CC2)C1 [Compound 30, (S)-2-(2-(3-(1-(1-acetylazetidin-3-yl)piperidin-4-yl)-1-methyl-1H-indazol-5-yl)-7-(4-chlorophenyl)-5-methylbenzo[d]thiazol-6-yl)-2-(tert-butoxy)acetic acid] | 111 nM | 12 nM | 187 nM | 
Cc1cc2nc(-c3ccc4c(c3)c(C3CCN(C5CN(C)C5)CC3)nn4C)sc2c(-c2ccc(Cl)cc2)c1[C@H](OC(C)(C)C)C(=O)O [Compound 31, (S)-2-(tert-butoxy)-2-(7-(4-chlorophenyl)-5-methyl-2-(1-methyl-3-(1-(1-methylazetidin-3-yl)piperidin-4-yl)-1H-indazol-5-yl)benzo[d]thiazol-6-yl)acetic acid] | 138 nM | 12 nM | 236 nM | 
CC(=O)N1CC(N2CCC(c3nn(CCN(C)C)c4ccc(-c5nc6cc(C)c([C@H](OC(C)(C)C)C(=O)O)c(-c7ccc(Cl)cc7)c6s5)cc34)CC2)C1 [Compound 33, (S)-2-(2-(3-(1-(1-acetylazetidin-3-yl)piperidin-4-yl)-1-(2-(dimethylamino)ethyl)-1H-indazol-5-yl)-7-(4-chlorophenyl)-5-methylbenzo[d]thiazol-6-yl)-2-(tert-butoxy)acetic acid] | 587 nM | 5 nM | 1020 nM | 
Cc1cc2nc(-c3ccc4[nH]nc(C5CCN(C6COC6)CC5)c4c3)sc2c(-c2ccc(Cl)cc2)c1[C@H](OC(C)(C)C)C(=O)O [Compound 34, (S)-2-(tert-butoxy)-2-(7-(4-chlorophenyl)-5-methyl-2-(3-(1-(oxetan-3-yl)piperidin-4-yl)-1H-indazol-5-yl)benzo[d]thiazol-6-yl)acetic acid] | 968 nM |  | 1170 nM | 31 nM
CCn1nc(C2CCN(C3COC3)CC2)c2cc(-c3nc4cc(C)c([C@H](OC(C)(C)C)C(=O)O)c(-c5ccc(Cl)cc5)c4s3)ccc21 [Compound 35, (S)-2-(tert-butoxy)-2-(7-(4-chlorophenyl)-2-(1-ethyl-3-(1-(oxetan-3-yl)piperidin-4-yl)-1H-indazol-5-yl)-5-methylbenzo[d]thiazol-6-yl)acetic acid] | 84 nM | 4 nM | 238 nM | 
CCn1nc2ccc(-c3nc4cc(C)c([C@H](OC(C)(C)C)C(=O)O)c(-c5ccc(Cl)cc5)c4s3)cc2c1C1CCN(C2COC2)CC1 [Compound 36, (S)-2-(tert-butoxy)-2-(7-(4-chlorophenyl)-2-(2-ethyl-3-(1-(oxetan-3-yl)piperidin-4-yl)-2H-indazol-5-yl)-5-methylbenzo[d]thiazol-6-yl)acetic acid] | 1080 nM | 14 nM | 3580 nM | 
Cc1cc2nc(-c3ccc4c(c3)c(C3CCN(C5COC5)CC3)nn4C3CC3)sc2c(-c2ccc(Cl)cc2)c1[C@H](OC(C)(C)C)C(=O)O [Compound 38, (S)-2-(tert-butoxy)-2-(7-(4-chlorophenyl)-2-(1-cyclopropyl-3-(1-(oxetan-3-yl)piperidin-4-yl)-1H-indazol-5-yl)-5-methylbenzo[d]thiazol-6-yl)acetic acid] | 293 nM | 8 nM | 349 nM | 
Cc1cc2nc(-c3ccc4c(c3)c(C3CCN(C5COC5)CC3)nn4C(F)F)sc2c(-c2ccc(Cl)cc2)c1[C@H](OC(C)(C)C)C(=O)O [Compound 39, (S)-2-(tert-butoxy)-2-(7-(4-chlorophenyl)-2-(1-(difluoromethyl)-3-(1-(oxetan-3-yl)piperidin-4-yl)-1H-indazol-5-yl)-5-methylbenzo[d]thiazol-6-yl)acetic acid] | 651 nM | 13 nM | 1150 nM | 
[2H]C([2H])([2H])n1nc(C2CCN(C3COC3)CC2)c2cc(-c3nc4cc(C)c([C@H](OC(C)(C)C)C(=O)O)c(-c5ccc(Cl)cc5)c4s3)ccc21 [Compound 40, (S)-2-(tert-butoxy)-2-(7-(4-chlorophenyl)-5-methyl-2-(1-(methyl-d3)-3-(1-(oxetan-3-yl)piperidin-4-yl)-1H-indazol-5-yl)benzo[d]thiazol-6-yl)acetic acid] | 257 nM | 10 nM | 518 nM | 
Cc1cc2nc(-c3ccc4c(c3)c(C3CCN(C5COC5)CC3)nn4CC(F)(F)F)sc2c(-c2ccc(Cl)cc2)c1[C@H](OC(C)(C)C)C(=O)O [Compound 41, (S)-2-(tert-butoxy)-2-(7-(4-chlorophenyl)-5-methyl-2-(3-(1-(oxetan-3-yl)piperidin-4-yl)-1-(2,2,2-trifluoroethyl)-1H-indazol-5-yl)benzo[d]thiazol-6-yl)acetic acid] | 4980 nM | 3830 nM | 5310 nM | 
Cc1cc2nc(-c3ccc4c(c3)c(C3CCN(C5COC5)CC3)nn4CC(F)F)sc2c(-c2ccc(Cl)cc2)c1[C@H](OC(C)(C)C)C(=O)O [Compound 42, (S)-2-(tert-butoxy)-2-(7-(4-chlorophenyl)-2-(1-(2,2-difluoroethyl)-3-(1-(oxetan-3-yl)piperidin-4-yl)-1H-indazol-5-yl)-5-methylbenzo[d]thiazol-6-yl)acetic acid] | 5710 nM | 5040 nM | 5710 nM | 
CC(=O)N1CC(N2CCC(c3nn(C(F)F)c4ccc(-c5nc6cc(C)c([C@H](OC(C)(C)C)C(=O)O)c(-c7ccc(Cl)cc7)c6s5)cc34)CC2)C1 [Compound 43, (S)-2-(2-(3-(1-(1-acetylazetidin-3-yl)piperidin-4-yl)-1-(difluoromethyl)-1H-indazol-5-yl)-7-(4-chlorophenyl)-5-methylbenzo[d]thiazol-6-yl)-2-(tert-butoxy)acetic acid] | 313 nM | 26 nM | 409 nM | 
COC(=O)N1CC(N2CCC(c3nn(C(F)F)c4ccc(-c5nc6cc(C)c([C@H](OC(C)(C)C)C(=O)O)c(-c7ccc(Cl)cc7)c6s5)cc34)CC2)C1 [Compound 44, (S)-2-(tert-butoxy)-2-(7-(4-chlorophenyl)-2-(1-(difluoromethyl)-3-(1-(1-(methoxycarbonyl)azetidin-3-yl)piperidin-4-yl)-1H-indazol-5-yl)-5-methylbenzo[d]thiazol-6-yl)acetic acid] | 600 nM | 30 nM | 776 nM | 
CC(=O)N1CC(N2CCC(c3nn(C4CC4)c4ccc(-c5nc6cc(C)c([C@H](OC(C)(C)C)C(=O)O)c(-c7ccc(Cl)cc7)c6s5)cc34)CC2)C1 [Compound 45, (S)-2-(2-(3-(1-(1-acetylazetidin-3-yl)piperidin-4-yl)-1-cyclopropyl-1H-indazol-5-yl)-7-(4-chlorophenyl)-5-methylbenzo[d]thiazol-6-yl)-2-(tert-butoxy)acetic Acid] | 174 nM | 17 nM | 287 nM | 
COC(=O)N1CC(N2CCC(c3nn(C4CC4)c4ccc(-c5nc6cc(C)c([C@H](OC(C)(C)C)C(=O)O)c(-c7ccc(Cl)cc7)c6s5)cc34)CC2)C1 [Compound 46, (S)-2-(tert-butoxy)-2-(7-(4-chlorophenyl)-2-(1-cyclopropyl-3-(1-(1-(methoxycarbonyl)azetidin-3-yl)piperidin-4-yl)-1H-indazol-5-yl)-5-methylbenzo[d]thiazol-6-yl)acetic acid] | 352 nM | 17 nM | 716 nM | 
